According to patent publication US20110200685A1, “Methods and compositions for the reduction of pathogenic microorganisms from meat and poultry carcasses, trim and offal” (priority 2010, published 2011):
“And” between values parts separate entries of the source, which are not always exact repeats. Equal values may be shown once.

Legend:
[1] = tested on: Salmonella typhimurium (ATCC 14028); experiment: Surface-associated bacteria remaining on chicken after 40 minute chilled immersion (Example 11); format: cell-based; details: chicken halves
Description: Most poultry processing facilities cool the product by submerging it for 30-60 minutes in a chiller tank containing an antimicrobial chemical. The chilled water solution is typically around 35° F. (Food Contact Notification, nos. 334 and 453). Therefore, the microbiological efficacy of the HOBr derived from NaOCl-activated HBr and the HOBr from DBDMH were compared by immersing chickens inoculated with a culture of Salmonella typhimurium (ATCC 14028) bacteria. An inoculum was prepared in the same manner as described in Example 10. This time the inoculum yielded a Salmonella typhimurium population of 3.78×10^8 CFU/ml, or log10 8.58. This was then sprayed onto both sides of the chicken halves and left to marinate for two hours. The average weight of the whole chicken used in this portion of the study was 5.20 lbs.
Each test solution was made with chilled water immediately prior to use. For each test solution and the control, two chicken halves were placed in a plastic storage bin containing one quart of test solution. A sterilized ice pack was placed in the bin to accompany the chicken and maintain water temperature. The chicken halves were allowed to sit in the chilled solution for 40 minutes at 35° F., and were turned every five minutes while gently agitating the storage bin. All containers were covered using aluminum foil to prevent degradation of the active ingredients by UV light.
In summary: • a) Control: Two chicken halves—city water • b) DBDMH: Two chicken halves—95 ppm as total bromine • c) NaOCl/HBr: Two chicken halves—100 ppm as total bromine
After spraying, each chicken half was gently shaken three times to remove excess liquid and returned to a new, sterile bag. 300 g of city water was introduced to the bag and the bag was tumbled vigorously for one minute to dislodge viable surface-associated Salmonella bacteria. The water left at the bottom of the bag was plated using 3M Petrifilm Enterobacteriaceae Plates and incubated at 35° C. for 24 hours, upon which the plates were enumerated.

[2] = Octanol-Water Partition Coefficient of HOBr (Example 13); format: physicochemical
Description: In order to quantify the lipophilicity of HOBr solutions prepared from NaOCl-activated HBr, the Octanol-Water Partition Coefficient was determined.
The Octanol-Water Partition Coefficient is defined as:
Pow=Octanol-Water Partition Coefficient. Commonly the logarithm of this number is reported as Log Pow
A high concentration of a HOBr solution was prepared by introducing sufficient NaOCl to activate 3.34 ml 48% HBr in 900 ml RO water until the pH was 7.23. By iodometric titration, the solution was determined to contain 5625 ppm as Br2. The slightly yellow activated solution (25 ml) was poured into an Erlenmeyer flask containing octanol (25 ml). This was mixed for two minutes using a high-speed magnetic stirrer after which the two phases were allowed to separate. All of the yellow color had phase-separated into the top octanol layer. […] The Pow was calculated to be 1.97. This was repeated for lower concentrations of HOBr by preparing a stock solution of 300 ppm as Br2 using 0.2 ml 48% HBr in 900 ml RO water and adding sufficient NaOCl bleach until the pH was 7.33. From the 300 ppm as Br2 stock solution, solutions of 200 and 100 ppm as Br2 were prepared.
A saturated solution of DBDMH was prepared by slurrying DBDMH (1 g) powder in RO water (99 g) and stirring rapidly for 20 minutes. Undissolved solids were removed by gravity filtration. By iodometric titration, the solution was determined to contain 1170 ppm as Br2. The DBDMH solution (25 ml) was poured into an Erlenmeyer flask containing octanol (25 ml). This was mixed for two minutes using a high-speed magnetic stirrer after which the two phases were allowed to separate. […] The Pow was calculated to be 0.808. The 1170 ppm as Br2 stock solution was then used to prepare solution of 300, 200 and 100 ppm as Br2 solutions.

[3] = Relative stability (decay) of HOBr from NaOCl-activated HBr vs DBDMH, 600 ppm as bromine (Example 4); format: physicochemical; details: HOBr 600 ppm as bromine; stored in the dark; 70-75° F.
Description: The relative stability of HOBr derived from NaOCl-activated HBr and HOBr derived from DBDMH was compared side-by-side. A solution of HOBr (600 ppm as bromine) was used in the comparison because this is the amount of bromine that typically exits the commercial DBDMH feeders when the solid product is dissolved. The activity of the solutions was measured using the DPD Total chlorine colorimetric method. Solutions were stored in the dark to prevent photodegradation due to UV light exposure. The temperature ranged from 70-75° F. for the duration of the test.
The HOBr decay profiles for the 600 ppm (as bromine) solutions derived from NaOCl-activated HBr solution and DBDMH solution are plotted in FIG. 2.
Graphs of ln(Co/Ct) where Co is the initial concentration of HOBr and Ct is the concentration at day t were close to straight lines for both the DBDMH and NaOCl-activated HBr derived solutions. (the regression analysis correlation coefficient, R^2 values were close to 1). The R^2 value for the DBDMH and the NaOCl-activated HBr solutions were 0.9251 and 0.9302, respectively. […]
The half-lives of HOBr from the HBr-activated solution and the DBDMH solution were calculated by […]—the natural logarithm (ln) of 2.

E. coli O157:H7 [4] = experiment: Microbiological quality of wash water after spraying inoculated beef and pork (Example 9); format: cell-based; details: for log10 (remaining): 30 second spray 50 psi; for log10 reduction: vs city water control
Text: (§1) The microbiological efficacy of the HOBr derived from NaOCl/HBr and the HOBr from DBDMH were compared against a culture of E. coli O157:H7 bacteria that was sprayed onto the surface of beef and pork meat.
(§2) Meat processing facilities commonly treat beef and pork with antimicrobial solutions for about 30 seconds by spraying the beef and pork carcasses and trim with the solution in a spray cabinet. To simulate this process, a small spray cabinet was constructed for the study. A 30-gallon, open-headed drum was equipped with three ½ inch PVC section of pipe that were vertically oriented and positioned 120 degrees apart. Each section of pipe had two spay nozzles four inches apart positioned to form a spray zone in the center of the drum. An air-assisted diaphragm pump was used to deliver the test solution into the three ½ inch PVC pipe sections and through the nozzles. A regulator on the air pump was used to adjust the pressure of the spray as necessary.
(§3) A stock solution of a field strain of E. coli O157:H7 was incubated at 35° C. for four days in Sigma Nutrient Broth for microbial culture. Three daily, consecutive transfers of the inoculums were made to ensure that a sufficient concentration of E. coli O157:H7 was available for the study. The broth and bacteria mixture was then centrifuged leaving the E. coli O157:H7 to be re-suspended in approximately 500 ml Butterfield's Buffer. The E. coli O157:H7 buffer solution was serially diluted and plated on 3M Petrifilm E. coli plates, incubated at 35° C. for 48 hours where it was determined that the E. coli O157:H7 population was 6.76×10^7 CFU/ml or log10 7.83.
(§4) In summary: • Beef— • a) Control: Three beef pieces—city water • b) DBDMH: Three beef pieces—288 ppm Br2 • c) NaOCl/HBr: Three beef pieces—279 ppm Br2 • Pork— • a) Control: Three pork pieces—city water • b) DBDMH: Three pork pieces—288 ppm Br2 • c) NaOCl/HBr: Three pork pieces—279 ppm Br2
(§5) During the 30 second spray, a piece of meat was held by a hook and moved up and down in the spray zone of the spray cabinet with rotation to ensure even distribution of the solution over the surface. The spray pressure was set at 50 psi.
Immediately after each piece was sprayed, a sample of the wash solution was taken from the bottom of the spray cabinet drum for microbial analysis. The solutions were plated on 3M Petrifilm E. coli plates and incubated at 35° C. for 48 hours.

[5] = tested on: Salmonella typhimurium (ATCC 14028); experiment: Surface-associated bacteria remaining on chicken after 30 second spray (Example 10); format: cell-based; details: chicken halves
Text: In the processing of poultry, birds that are deemed by the USDA inspectors to have undesirable levels of fecal contamination are directed to a dedicated cabinet where they are sprayed with an antimicrobial solution. If the fecal contamination were not removed, birds harboring the pathogenic Salmonella organism would enter the human food chain. Therefore, the microbiological efficacy of the HOBr derived from NaOCl/HBr and the HOBr from DBDMH were compared on chicken inoculated with a culture of Salmonella typhimurium (ATCC 14028) bacteria.
A stock solution of Salmonella typhimurium (ATCC 14028) was incubated at 35° C. for four days in Sigma Nutrient Broth for microbial culture. Three daily, consecutive transfers of the inoculums were made to ensure that a sufficient concentration of Salmonella typhimurium was available for the study. The broth and bacteria mixture was then centrifuged leaving the Salmonella typhimurium to be re-suspended in approximately 500 ml Butterfield's Buffer. The Salmonella buffer solution was serially diluted and plated on 3M Petrifilm Enterobacteriaceae Plates, incubated at 35° C. for 24 hours where it was determined that the Salmonella typhimurium population was 2.34×10^8 or log10 8.37 CFU/ml (colony forming units per milliliter).
Three whole, uncooked chickens were purchased from a local grocer. The average weight of the whole chickens was 5.30 pounds. The organs were removed from each chicken and subsequently, each chicken was cut evenly in half down the back leaving six equal halves which contained a back, breast, thigh and leg. The chicken halves were then patted dry with a paper towel, sprayed liberally on all sides and marinated with Salmonella typhimurium—Butterfield's Buffer solution inoculums for two hours, turning occasionally.
The six chicken pieces were introduced to the spray cabinet used in Example 9. […] The concentration of HOBr was measured prior to spraying the meat pieces by using a HACH DR/700 Colorimeter and HACH 10 ml DPD Total Chlorine pillow packets. […]

E. coli O157:H7 [6] = experiment: Surface-associated bacteria remaining on beef and pork after 30 second spray (Example 9); format: cell-based; details: for log10 (remaining): 30 second spray 50 psi, DBDMH 288 ppm Br2, NaOCl/HBr 279 ppm Br2; for % reduction / log10 reduction: vs city water control
Text: as §1, §2, §3
The type of beef used was chuck roast, which was cut into nine equal pieces. The average weight of beef piece used in this portion of the study was 257.1 g. Nine boneless pork chops of average weight of pork 142.9 g were used.
as §4, §5
After spraying, each meat piece was gently shaken three times to remove excess liquid and returned to a new, sterile bag containing 200 g of city water. The bag was sealed and then vigorously agitated manually for one minute to dislodge any viable surface-associated bacteria from the meat and into the aqueous phase. The water was then plated using 3M Petrifilm E. coli plates and incubated at 35° C. for 48 hours, after which the plates were enumerated. All plating for E. coli was performed within five minutes of completing the spray.

[7] = immersion 40 minutes, vs city water control
[8] = Concentration HOBr (as Br2) 100
[9] = Concentration HOBr (as Br2) 200
[10] = Concentration HOBr (as Br2) 300
[11] = Concentration HOBr (as Br2) 1170 (saturated solution)
[12] = 30 second spray, vs city water control

For `CC1(C)C(=O)N(Br)C(=O)N1Br` [DBDMH, 1,3-dibromo-5,5-dimethylhydantoin], the “log10 (remaining)” value ([1]; immersion 40 minutes at 35° F., DBDMH 95 ppm, NaOCl/HBr 100 ppm as total bromine, control 6.54) was 6.25 log10 CFU/ml, the “% reduction” value [1, 7] was 48.71% and the log10 reduction [1, 7] was 0.29 log10 CFU/ml. For the same compound, the “Concentration in aqueous phase after partitioning into octanol” value (“Concentration in aqueous phase” for short) [2, 8] was 19.125 ppm as Br2, the “Pow HOBr” value [2, 8] was 0.645 and the “Concentration in aqueous phase” value [2, 9] was 34.99 ppm as Br2. The “Pow HOBr” value [2, 9] was 0.719, the “Concentration in aqueous phase” value [2, 10] was 50.74 ppm as Br2 and the “Pow HOBr” value [2, 10] was 0.731. The “Concentration in aqueous phase” value [2, 11] was 159.7 ppm as Br2 and 157.5 ppm as Br2, the “Pow HOBr” value [2, 11] was 0.808 and the “rate constant of HOBr decay” value [3] was 0.051 day⁻¹. The “log10 (remaining)” value (E. coli O157:H7 [4]; beef, DBDMH 288 ppm Br2, NaOCl/HBr 279 ppm Br2, control 5.01) was 0.48 log10, the log10 reduction (E. coli O157:H7 [4]; beef) was 4.53 log10 and the “log10 (remaining)” value (E. coli O157:H7 [4]; pork, DBDMH 288 ppm Br2, NaOCl/HBr 279 ppm Br2, control 5.18) was 0.99 log10. The log10 reduction (E. coli O157:H7 [4]; pork) was 4.19 log10, the “log10 (remaining)” value ([5]; 30 second spray 40 psi, DBDMH 295 ppm, NaOCl/HBr 275 ppm as total bromine, control 6.15) was 5.85 log10 CFU/ml and the “% reduction” value [5, 12] was 49.88%. For the same compound, the log10 reduction [5, 12] was 0.30 log10 CFU/ml, the “log10 (remaining)” value (E. coli O157:H7 [6]; on beef, control 6.15) was 5.56 log10 and the “% reduction” value (E. coli O157:H7 [6]; on beef) was 74.30%. The log10 reduction (E. coli O157:H7 [6]; on beef) was 0.59 log10, the “log10 (remaining)” value (E. coli O157:H7 [6]; on pork, control 6.43) was 5.71 log10 and the “% reduction” value (E. coli O157:H7 [6]; on pork) was 80.95%. For the same compound, the log10 reduction (E. coli O157:H7 [6]; on pork) was 0.72 log10.
